Key:
[1] = test system: MPM tumor cell lines; experiment: 3D vascular model of NK cell migration; assay type: cell-based, human
Description: 3D vascular model. To generate the tumor-vascular model, H226 spheroids were mixed with collagen rat tail hydrogel (2.5 mg/ml) and injected into the center gel region of the 3D microfluidic chamber (10-15 μL per each microfluidic chamber). After incubation for 30 minutes at 37° C. in sterile humidity chambers, the side wall of one flanked channel (media channel) was coated with a 150 μg/ml collagen solution in PBS to allow for better adhesion of eCs to the channel. After 15 mins, the channel was washed once with media. To create the 3D vessel, 25 μL cell suspension of 3×10^6 cells/ml human umbilical vein endothelial cells (HUVECs; C2519AS, Lonza) were injected in the media channel coated with collagen. The channel was rotated twice to create a confluent hollow-lumen 3D vessel. To allow the cells to attach to the media-gel interface and form a monolayer, the chip was incubated with cells face down for 15 mins. Next, 50 μL cell suspension was reinjected, and the chip was flipped to cover the upper part of the 3D vascular channel. After 90 mins of incubation in the humidity chamber at 37° C., cell culture media was gently added to both channels and further incubated to form a confluent monolayer. After vessel formation, NK cells (labelled with cell tracker) were added to the 3D vessel at 2:1 E:T ratio. […] NK cell migration+/−vessel was quantified at 24 hours. Image capture and analysis was performed using a fluorescence confocal microscope and processing software. The 3D vascular channels were rinsed in PBS and fixed with 4% PFA for 15 min at room temperature. Cell membranes were permeabilized with 0.1% Triton X-100 for 5 min at room temperature and washed twice with PBS. HUVEC cells were stained for F-actin with green phalloidin (Thermo Fisher Scientific A12379) and Hoechst 33342. Images were captured on a Nikon Eclipse 80i fluorescence microscope equipped with Z-stack (Prior) and CoolSNAP CCD camera (Roper Scientific).

[2] = test system: NK cells; conditions: systemic administration, murine models; related manuscript; cited from earlier work
[3] = test system: NK cells; experiment: Immune cell toxicity assays, NK cells; assay type: cell-based; conditions: 72 hours of high dose exposure; regardless of IL-2 or co-culture with TILs
Description: Immune Cell Toxicity Assays. […] Following treatment, samples were stained with anti-CD45, anti-CD3, anti-CD4, anti-CD8, and anti-CD56 antibodies (Table 1), as well as Zombie Green live/dead (Biolegend 423111) and analyzed by flow cytometry as described above. Data were analyzed using FlowJo software version 10.5.3. As an orthogonal measure of viability, CellTiter-Glo was performed on primary T-cells and NK cells.
CellTiter-Glo luminescent cell viability assay. Cell viability was assessed using the CellTiter-Glo Luminescent Cell Viability assay (Promega, G7571) according to manufacturer's instructions. […] All conditions were tested in triplicate and plates were read on a Tecan Infinite Mplex Microplate Reader.

[4] = test system: STING; experiment: STING immunoblotting in NK cells and TILs; assay type: cell-based, human; conditions: NK cells
Description: Immunoblotting. […] Imaging of blots and was performed using the LI-COR Odyssey system.

[5] = target: T1, CXCR3 (Homo sapiens, UniProt P49682); experiment: CXCR3 surface expression after hCXCL10, flow cytometry; assay type: cell-based; conditions: NK cells, NK92, Jurkat; 200 ng hCXCL10
T1 construct: endogenous in cells; host or cells: primary NK cells (cNK, CIML); NK92 and JURKAT CXCR3+ lines; also CAR and CAR-CXCR3 transduced NK cells
T1 sequence (P49682 1-368): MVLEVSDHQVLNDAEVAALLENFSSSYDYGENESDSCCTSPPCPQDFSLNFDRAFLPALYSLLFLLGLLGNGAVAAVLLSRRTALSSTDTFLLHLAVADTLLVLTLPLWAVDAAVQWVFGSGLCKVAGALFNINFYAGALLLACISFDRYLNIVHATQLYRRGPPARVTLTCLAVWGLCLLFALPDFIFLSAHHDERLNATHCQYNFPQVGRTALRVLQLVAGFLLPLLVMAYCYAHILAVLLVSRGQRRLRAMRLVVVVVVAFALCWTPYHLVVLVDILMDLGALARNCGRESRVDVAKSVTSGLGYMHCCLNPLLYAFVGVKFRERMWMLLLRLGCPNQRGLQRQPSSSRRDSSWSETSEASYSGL
Description: CXCR3 is degraded from the cell surface of primary NK cells and the NK cell lines NK92 and […] both expressing CXCR3, after stimulation with 200 ng of recombinant human C—X—C Motif Chemokine Ligand 10 (hCXCL10) at different time points, as illustrated in FIG. 17A-FIG. 18B, measured by flow cytometry and expressed as median fluorescent intensity (MFI) of the CXCR3 receptor. CXCR3 is also degraded from CAR and CAR-CXCR expressing cNK cells. FIG. 18C-FIG. 18D illustrate CXCR3 surface expression as measured by flow cytometry of primary NK cells (cNK) expressing CAR, CAR-CXCR3 or control, stimulated with 200 ng of recombinant human CXCL10 stimulation at different time points (0 and 60 minutes). CXCR3 is degraded from cNK NT, CAR-cNK, and CAR-NK CXCR+ cell surfaces after 1 hour of hCXCL10 treatment (FIG. 19C). CXCR3 is also degraded from cytokine-induced memory-like (CIML) NK NT, CIML CAR-NK, CIML CAR-NK CXCR+ after 1 hour of hCXCL10 treatment (FIG. 19D).

## Nc1ncnc2c1ncn2[C@@H]1O[C@@H]2CO[P@@](=O)(S)O[C@@H]3[C@H](O)[C@@H](CO[P@@](=O)(S)O[C@H]2[C@H]1F)O[C@H]3n1cc(F)c2c(=O)nc[nH]c21 [TAK-676]
[1]; ex vivo model
  overcoming a human vascular barrier: especially potent
[1]; presence and absence of the vascular barrier
  NK cell migration: enhanced NK cell migration
[2]
  trafficking and activation of NK cells: enhanced
[3]
  cytotoxicity in human NK cells: no significant cytotoxicity

## CCN(CC)CCCC(C)Nc1ccnc2cc(Cl)ccc12 (stereo not drawn) [chloroquine]
[4]
  effect on ADU-S100 induced STING degradation: prevented

## hCXCL10: recombinant human C—X—C Motif Chemokine Ligand 10
[5]
  CXCR3 cell surface expression: lost from the cell surface
